{
  "source": "BigSolDB 2.1",
  "data": [
    {"smiles": "CN1CCOC(c2ccccc2)c2ccccc2C1.Cl", "note": "(stereo not drawn)", "values": [
      {"measurement": "solubility (mole fraction)", "setting": "in acetone, 273.15 K", "value": "7.2e-05"},
      {"measurement": "solubility (mole fraction)", "setting": "in acetone, 278.15 K", "value": "8.7e-05"},
      {"measurement": "solubility (mole fraction)", "setting": "in acetone, 283.15 K", "value": 0.000107},
      {"measurement": "solubility (mole fraction)", "setting": "in acetone, 288.15 K", "value": 0.000128},
      {"measurement": "solubility (mole fraction)", "setting": "in acetone, 293.15 K", "value": 0.000151},
      {"measurement": "solubility (mole fraction)", "setting": "in acetone, 298.15 K", "value": 0.000182},
      {"measurement": "solubility (mole fraction)", "setting": "in acetone, 303.15 K", "value": 0.000215},
      {"measurement": "solubility (mole fraction)", "setting": "in acetone, 308.15 K", "value": 0.000265},
      {"measurement": "solubility (mole fraction)", "setting": "in acetone, 313.15 K", "value": 0.000312},
      {"measurement": "solubility (mole fraction)", "setting": "in acetone, 318.15 K", "value": 0.000373},
      {"measurement": "solubility (mole fraction)", "setting": "in acetone, 323.15 K", "value": 0.000445},
      {"measurement": "solubility (mole fraction)", "setting": "in ethanol, 273.15 K", "value": 0.00136},
      {"measurement": "solubility (mole fraction)", "setting": "in ethanol, 278.15 K", "value": 0.00163},
      {"measurement": "solubility (mole fraction)", "setting": "in ethanol, 283.15 K", "value": 0.00198},
      {"measurement": "solubility (mole fraction)", "setting": "in ethanol, 288.15 K", "value": 0.00247},
      {"measurement": "solubility (mole fraction)", "setting": "in ethanol, 293.15 K", "value": 0.0029},
      {"measurement": "solubility (mole fraction)", "setting": "in ethanol, 298.15 K", "value": 0.00337},
      {"measurement": "solubility (mole fraction)", "setting": "in ethanol, 303.15 K", "value": 0.00402},
      {"measurement": "solubility (mole fraction)", "setting": "in ethanol, 308.15 K", "value": 0.00473},
      {"measurement": "solubility (mole fraction)", "setting": "in ethanol, 313.15 K", "value": 0.00559},
      {"measurement": "solubility (mole fraction)", "setting": "in ethanol, 318.15 K", "value": 0.00654},
      {"measurement": "solubility (mole fraction)", "setting": "in ethanol, 323.15 K", "value": 0.00795},
      {"measurement": "solubility (mole fraction)", "setting": "in isobutanol, 273.15 K", "value": 0.000415},
      {"measurement": "solubility (mole fraction)", "setting": "in isobutanol, 278.15 K", "value": 0.000524},
      {"measurement": "solubility (mole fraction)", "setting": "in isobutanol, 283.15 K", "value": 0.000635},
      {"measurement": "solubility (mole fraction)", "setting": "in isobutanol, 288.15 K", "value": 0.000797},
      {"measurement": "solubility (mole fraction)", "setting": "in isobutanol, 293.15 K", "value": 0.000955},
      {"measurement": "solubility (mole fraction)", "setting": "in isobutanol, 298.15 K", "value": 0.00116},
      {"measurement": "solubility (mole fraction)", "setting": "in isobutanol, 303.15 K", "value": 0.00144},
      {"measurement": "solubility (mole fraction)", "setting": "in isobutanol, 308.15 K", "value": 0.00175},
      {"measurement": "solubility (mole fraction)", "setting": "in isobutanol, 313.15 K", "value": 0.00214},
      {"measurement": "solubility (mole fraction)", "setting": "in isobutanol, 318.15 K", "value": 0.0026},
      {"measurement": "solubility (mole fraction)", "setting": "in isobutanol, 323.15 K", "value": 0.00321},
      {"measurement": "solubility (mole fraction)", "setting": "in isopropanol, 273.15 K", "value": 0.000136},
      {"measurement": "solubility (mole fraction)", "setting": "in isopropanol, 278.15 K", "value": 0.000167},
      {"measurement": "solubility (mole fraction)", "setting": "in isopropanol, 283.15 K", "value": 0.000206},
      {"measurement": "solubility (mole fraction)", "setting": "in isopropanol, 288.15 K", "value": 0.000251},
      {"measurement": "solubility (mole fraction)", "setting": "in isopropanol, 293.15 K", "value": 0.00032},
      {"measurement": "solubility (mole fraction)", "setting": "in isopropanol, 298.15 K", "value": 0.000407},
      {"measurement": "solubility (mole fraction)", "setting": "in isopropanol, 303.15 K", "value": 0.000494},
      {"measurement": "solubility (mole fraction)", "setting": "in isopropanol, 308.15 K", "value": 0.000608},
      {"measurement": "solubility (mole fraction)", "setting": "in isopropanol, 313.15 K", "value": 0.000752},
      {"measurement": "solubility (mole fraction)", "setting": "in isopropanol, 318.15 K", "value": 0.000935},
      {"measurement": "solubility (mole fraction)", "setting": "in isopropanol, 323.15 K", "value": 0.00114},
      {"measurement": "solubility (mole fraction)", "setting": "in methanol, 273.15 K", "value": 0.00515},
      {"measurement": "solubility (mole fraction)", "setting": "in methanol, 278.15 K", "value": 0.00566},
      {"measurement": "solubility (mole fraction)", "setting": "in methanol, 283.15 K", "value": 0.00632},
      {"measurement": "solubility (mole fraction)", "setting": "in methanol, 288.15 K", "value": 0.00692},
      {"measurement": "solubility (mole fraction)", "setting": "in methanol, 293.15 K", "value": 0.00764},
      {"measurement": "solubility (mole fraction)", "setting": "in methanol, 298.15 K", "value": 0.00856},
      {"measurement": "solubility (mole fraction)", "setting": "in methanol, 303.15 K", "value": 0.00951},
      {"measurement": "solubility (mole fraction)", "setting": "in methanol, 308.15 K", "value": 0.0105},
      {"measurement": "solubility (mole fraction)", "setting": "in methanol, 313.15 K", "value": 0.0115},
      {"measurement": "solubility (mole fraction)", "setting": "in methanol, 318.15 K", "value": 0.0128},
      {"measurement": "solubility (mole fraction)", "setting": "in methanol, 323.15 K", "value": 0.0143},
      {"measurement": "solubility (mole fraction)", "setting": "in n-butanol, 273.15 K", "value": 0.000205},
      {"measurement": "solubility (mole fraction)", "setting": "in n-butanol, 278.15 K", "value": 0.000245},
      {"measurement": "solubility (mole fraction)", "setting": "in n-butanol, 283.15 K", "value": 0.000287},
      {"measurement": "solubility (mole fraction)", "setting": "in n-butanol, 288.15 K", "value": 0.000369},
      {"measurement": "solubility (mole fraction)", "setting": "in n-butanol, 293.15 K", "value": 0.000463},
      {"measurement": "solubility (mole fraction)", "setting": "in n-butanol, 298.15 K", "value": 0.000605},
      {"measurement": "solubility (mole fraction)", "setting": "in n-butanol, 303.15 K", "value": 0.000776},
      {"measurement": "solubility (mole fraction)", "setting": "in n-butanol, 308.15 K", "value": 0.000986},
      {"measurement": "solubility (mole fraction)", "setting": "in n-butanol, 313.15 K", "value": 0.00125},
      {"measurement": "solubility (mole fraction)", "setting": "in n-butanol, 318.15 K", "value": 0.00159},
      {"measurement": "solubility (mole fraction)", "setting": "in n-butanol, 323.15 K", "value": 0.00198},
      {"measurement": "solubility (mole fraction)", "setting": "in n-propanol, 273.15 K", "value": 0.000291},
      {"measurement": "solubility (mole fraction)", "setting": "in n-propanol, 278.15 K", "value": 0.000328},
      {"measurement": "solubility (mole fraction)", "setting": "in n-propanol, 283.15 K", "value": 0.000387},
      {"measurement": "solubility (mole fraction)", "setting": "in n-propanol, 288.15 K", "value": 0.000495},
      {"measurement": "solubility (mole fraction)", "setting": "in n-propanol, 293.15 K", "value": 0.000652},
      {"measurement": "solubility (mole fraction)", "setting": "in n-propanol, 298.15 K", "value": 0.000836},
      {"measurement": "solubility (mole fraction)", "setting": "in n-propanol, 303.15 K", "value": 0.00106},
      {"measurement": "solubility (mole fraction)", "setting": "in n-propanol, 308.15 K", "value": 0.00134},
      {"measurement": "solubility (mole fraction)", "setting": "in n-propanol, 313.15 K", "value": 0.0017},
      {"measurement": "solubility (mole fraction)", "setting": "in n-propanol, 318.15 K", "value": 0.00213},
      {"measurement": "solubility (mole fraction)", "setting": "in n-propanol, 323.15 K", "value": 0.00267},
      {"measurement": "solubility (mole fraction)", "setting": "in water, 273.15 K", "value": 0.000951},
      {"measurement": "solubility (mole fraction)", "setting": "in water, 278.15 K", "value": 0.00106},
      {"measurement": "solubility (mole fraction)", "setting": "in water, 283.15 K", "value": 0.00124},
      {"measurement": "solubility (mole fraction)", "setting": "in water, 288.15 K", "value": 0.00144},
      {"measurement": "solubility (mole fraction)", "setting": "in water, 293.15 K", "value": 0.00167},
      {"measurement": "solubility (mole fraction)", "setting": "in water, 298.15 K", "value": 0.00199},
      {"measurement": "solubility (mole fraction)", "setting": "in water, 303.15 K", "value": 0.00234},
      {"measurement": "solubility (mole fraction)", "setting": "in water, 308.15 K", "value": 0.00273},
      {"measurement": "solubility (mole fraction)", "setting": "in water, 313.15 K", "value": 0.00317},
      {"measurement": "solubility (mole fraction)", "setting": "in water, 318.15 K", "value": 0.00369},
      {"measurement": "solubility (mole fraction)", "setting": "in water, 323.15 K", "value": 0.00426}
    ]}
  ]
}
